In the NIST ThermoML archive (doi:10.1016/j.fluid.2018.11.035):
± gives the expanded uncertainty stated by the source.

Experiment: wn = mass fraction of the nth substance listed
Conditions: 101 kPa, Liquid, Vibrating tube method, w1 = 0.365

Work on `OCCO` [1,2-ethanediol] + O yielded a mass density (283.15 K) of 1059.35 ± 0.11 kg/m3, a mass density (293.15 K) of 1054.78 ± 0.11 kg/m3 and a mass density (303.15 K) of 1049.78 ± 0.11 kg/m3. The mass density (313.15 K) was 1044.38 ± 0.1 kg/m3, the mass density (323.15 K) was 1038.57 ± 0.1 kg/m3 and the mass density (333.15 K) was 1032.23 ± 0.1 kg/m3.
